# System: A549
# Assay: Growth inhibition of human A549 cells after 24 hrs by SRB assay
# Assay type: functional
# Conditions: A549, 24 h
row,Structure (SMILES),GI50 [µM]
1,c1ccc(Cc2cnc(N3CCN(Cc4ccccc4-c4cn[nH]c4)CC3)nc2)cc1,8.43
2,CCc1cnc(N2CCN(Cc3ccccc3Br)CC2)nc1,70.9
3,Oc1ccc(Br)c(CN2CCN(c3ncc(Cc4ccccc4)cn3)CC2)c1,23.7
4,CCc1cnc(N2CCN(Cc3cc(N)ccc3Cl)CC2)nc1,62.9
5,CCc1cnc(N2CCN(Cc3cc(F)ccc3-c3cn[nH]c3)CC2)nc1,49.2
6,O=[N+]([O-])c1cccc(CN2CCN(c3ncc(Cc4ccccc4)cn3)CC2)c1,61.2
7,Nc1ccc(Cl)c(CN2CCN(c3ncc(Cc4ccccc4)cn3)CC2)c1,15.1
8,Nc1cccc(CN2CCN(c3ncc(Cc4ccccc4)cn3)CC2)c1,75.4
9,Fc1ccc(-c2cn[nH]c2)c(CN2CCN(c3ncc(Cc4ccccc4)cn3)CC2)c1,9.91
10,CCc1cnc(N2CCN(Cc3cc(F)ccc3Br)CC2)nc1,> 100
11,CCc1cnc(N2CCN(Cc3cc([N+](=O)[O-])ccc3Cl)CC2)nc1,67.2
12,CCc1cnc(N2CCN(Cc3cccc([N+](=O)[O-])c3)CC2)nc1,88
13,Oc1cccc(CN2CCN(c3ncc(Cc4ccccc4)cn3)CC2)c1,51.1
14,O=[N+]([O-])c1ccc(Cl)c(CN2CCN(c3ncc(Cc4ccccc4)cn3)CC2)c1,> 100
15,c1ccc(Cc2cnc(N3CCN(Cc4ccccc4)CC3)nc2)cc1,49.6
16,CCc1cnc(N2CCN(Cc3cc(O)ccc3Br)CC2)nc1,57.6
17,CCc1cnc(N2CCN(Cc3ccccc3)CC2)nc1,> 100
18,CCc1cnc(N2CCN(Cc3ccccc3-c3cn[nH]c3)CC2)nc1,51.4
19,Fc1ccc(Br)c(CN2CCN(c3ncc(Cc4ccccc4)cn3)CC2)c1,> 100
20,Brc1ccccc1CN1CCN(c2ncc(Cc3ccccc3)cn2)CC1,86.5
21,CCc1cnc(N2CCN(Cc3cccc(N)c3)CC2)nc1,> 100
22,CCc1cnc(N2CCN(Cc3cccc(O)c3)CC2)nc1,> 100

# Biological target: Bcl-2-like protein 1 (Homo sapiens, UniProt Q07817)
# Assay: Binding affinity to Bcl-xL after 2 hrs by fluorescein-labeled Bak-BH3 peptide competition binding assay
# Conditions: not given
# Bcl-2-like protein 1, sequence (Q07817 whole entry): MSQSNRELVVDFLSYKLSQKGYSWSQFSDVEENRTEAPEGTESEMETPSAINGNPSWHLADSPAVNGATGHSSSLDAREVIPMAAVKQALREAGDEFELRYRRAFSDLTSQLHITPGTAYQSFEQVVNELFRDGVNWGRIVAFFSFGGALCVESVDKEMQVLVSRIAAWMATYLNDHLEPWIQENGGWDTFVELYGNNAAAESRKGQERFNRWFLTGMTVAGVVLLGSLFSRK
row,Structure (SMILES),Ki [µM]
1,c1ccc(Cc2cnc(N3CCN(Cc4ccccc4-c4cn[nH]c4)CC3)nc2)cc1,0.127
2,Nc1ccc(Cl)c(CN2CCN(c3ncc(Cc4ccccc4)cn3)CC2)c1,0.17
3,Oc1cccc(CN2CCN(c3ncc(Cc4ccccc4)cn3)CC2)c1,0.52

# From ChEMBL document CHEMBL1681673, “Anti-tumor pyrimidinylpiperazines bind to the prosurvival Bcl-2 protein family member Bcl-XL” (Bioorg Med Chem Lett, 2011)
